Test results taken from patent US8063077B2, “Factor Xa inhibitors” (Millennium Pharmaceuticals, Inc., priority 2006, dated 2011).

What follows are compounds tested against T1, human plasma protein factor Xa (Homo sapiens, UniProt P00742) (assay: Factor Xa IC50 determination, cleavage of paranitroanilide substrate S-2765). Conditions: factor Xa 1 nM, S2765 100 μM, Tris buffered saline pH 7.4, 5% DMSO.
T1 construct: The human plasma protein factor Xa was purchased from Haematologic Technologies; purchased Haematologic Technologies (Essex Junction, Vt.); host or cells: human plasma
T1 sequence (P00742 235-488 limits assumed): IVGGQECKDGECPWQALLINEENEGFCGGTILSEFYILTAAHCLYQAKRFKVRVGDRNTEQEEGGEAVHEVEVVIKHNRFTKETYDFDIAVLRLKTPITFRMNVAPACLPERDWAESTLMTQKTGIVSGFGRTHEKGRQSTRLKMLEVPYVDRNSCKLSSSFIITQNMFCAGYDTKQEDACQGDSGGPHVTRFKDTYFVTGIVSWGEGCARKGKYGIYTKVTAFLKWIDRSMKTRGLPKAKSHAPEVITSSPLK
T1 sequence (P00742 41-179 partner limits assumed): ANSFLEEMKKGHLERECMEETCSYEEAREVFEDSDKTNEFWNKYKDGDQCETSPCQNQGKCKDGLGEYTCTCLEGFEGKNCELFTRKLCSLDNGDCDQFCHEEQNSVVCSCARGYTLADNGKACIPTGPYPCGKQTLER
Assay type: biochemical
From the text: This example illustrates methods for evaluating the compounds of the invention, along with results obtained for such assays. The in vitro and in vivo human Factor Xa activities of the inventive compounds can be determined by various procedures known in the art, such as a test for their ability to inhibit the activity of human plasma Factor Xa. […] The IC50 value is the concentration (in nM) of the compound required to provide 50% inhibition of human Factor Xa proteolytic activity.
An in vitro assay for detecting and measuring inhibition activity against Factor Xa is as follows:
The substrate S-2765 (Z-D-Arg-Gly-Arg-pNA•HCl) was obtained from Diapharma (West Chester, Ohio).
The human plasma protein factor Xa was purchased from Haematologic Technologies (Essex Junction, Vt.).
All assays, which are performed in 96-well microtiter plates, measure proteolytic activity of the enzyme (factor Xa) by following cleavage of a paranitroanilide peptide substrate. The assay buffer used for proteolytic assays was Tris buffered saline (20 mM Tris, 150 mM NaCl, 5 mM CaCl2, 0.1% Bovine serum albumin (BSA), 5% Dimethly Sulfoxide (DMSO) pH 7.4). In a 96-well microtiter plate, inhibitor was serially diluted to give a range of final concentrations from 0.01 nM to 10 μM. Duplicate sets of wells were assayed and control wells without inhibitor were included. Enzyme was added to each well, (factor Xa concentration=1 nM), the plate was shaken for 5 seconds and then incubated for 5 minutes at room temperature. S2765 was added (100 μM final) and the plate was shaken for 5 seconds (final volume in each well was 200 μl). The degree of substrate hydrolysis was measured at 405 nm on a Thermomax plate reader (Molecular Devices, Sunnyvale, Calif.) for 2 minutes. The initial velocities of substrate cleavage (mOD/min), for each range of inhibitor concentrations, were fitted to a four parameter equation using Softmax data analysis software. The parameter C, derived from the resulting curve-fit, corresponded to the concentration for half maximal inhibition (IC50).
With `C#Cc1ccc(C(=O)NCc2cn(-c3ccc(-n4ccccc4=O)cc3)cn2)s1` [Compound 32, 5-Ethynyl-N-((1-(4-(2-oxopyridin-1(2H)-yl)phenyl)-1H-imidazol-4-yl)methyl)thiophene-2-carboxamide] the IC50 was ≤ 100 nM. `O=C(NCc1cn(-c2ccc(N3CCNC3=O)cc2)cn1)c1ccc(Cl)s1` [Compound 19, 5-Chloro-N-((1-(4-(2-oxoimidazolidin-1-yl)phenyl)-1H-imidazol-4-yl)methyl)thiophene-2-carboxamide] gave an IC50 of 100 to 500 nM. In the case of `Cc1c(CNC(=O)c2ccc(Cl)s2)ncn1-c1ccc(-n2ccccc2=O)cc1` [Compound 63, 5-Chloro-N-((5-methyl-1-(4-(2-oxopyridin-1(2H)-yl)phenyl)-1H-imidazol-4-yl)methyl)thiophene-2-carboxamide], the IC50 is reported as ≥ 500 nM. With `Cn1c(=O)ccn(-c2ccc(-n3cnc(CNC(=O)c4ccc(Cl)s4)c3)cc2)c1=O` [Compound 49, 5-chloro-N-((1-(4-(3-methyl-2,4-dioxo-3,4-dihydropyrimidin-1(2H)-yl)phenyl)-1H-imidazol-4-yl)methyl)thiophene-2-carboxamide] the IC50 was ≤ 100 nM. For `O=C(NCc1cn(-c2ccc(-n3ccccc3=O)cc2)cn1)c1ccc2cc[nH]c2c1` [Compound 31, N-((1-(4-(2-oxopyridin-1(2H)-yl)phenyl)-1H-imidazol-4-yl)methyl)-1H-indole-6-carboxamide], the IC50 was ≥ 500 nM. In the case of `Nc1nc(=O)n(-c2ccc(-n3cnc(CNC(=O)c4ccc(Cl)s4)c3)cc2)cc1F` [Compound 50, N-((1-(4-(4-amino-5-fluoro-2-oxopyrimidin-1(2H)-yl)phenyl)-1H-imidazol-4-yl)methyl)-5-chlorothiophene-2-carboxamide], the IC50 is reported as ≤ 100 nM. With `Cn1cc(Cl)cc1C(=O)NCc1cn(-c2ccc(-n3ccccc3=O)cc2)cn1` [Compound 37, 4-chloro-1-methyl-N-((1-(4-(2-oxopyridin-1(2H)-yl)phenyl)-1H-imidazol-4-yl)methyl)-1H-pyrrole-2-carboxamide] the IC50 was ≥ 500 nM. `O=C(NCc1cn(-c2ccc(-n3ccccc3=O)cc2N2CCS(=O)(=O)CC2)cn1)c1ccc(Cl)s1` [Compound 25, 5-Chloro-N-((1-(4-(2-oxopyridin-1(2H)-yl)-2-(1,1-dioxo-thiomorpholin-4-yl)phenyl)-1H-imidazol-4-yl)methyl)thiophene-2-carboxamide] was tested, and the IC50 was ≤ 100 nM. In the case of `O=C1CN(c2cc(-n3ccccc3=O)ccc2-n2cnc(CNC(=O)c3ccc(Cl)s3)c2)CCN1` [Compound 26, 5-Chloro-N-((1-(2-(3-oxopiperazin-1-yl)-4-(2-oxopyridin-1(2H)-yl)phenyl)-1H-imidazol-4-yl)methyl)thiophene-2-carboxamide], the IC50 is reported as ≤ 100 nM. With `CS(=O)(=O)c1nc(CNC(=O)c2ccc(Cl)s2)cn1-c1ccc(-n2ccccc2=O)cc1` [Compound 56, 5-chloro-N-((2-(methylsulfonyl)-1-(4-(2-oxopyridin-1(2H)-yl)phenyl)-1H-imidazol-4-yl)methyl)thiophene-2-carboxamide] the IC50 was ≤ 100 nM. In the case of `O=C(NCc1cn(-c2ccc(-n3ccncc3=O)cc2)cn1)c1ccc(Cl)s1` [Compound 12, 5-Chloro-N-((1-(4-(2-oxopyrazin-1(2H)-yl)phenyl)-1H-imidazol-4-yl)methyl)thiophene-2-carboxamide], the IC50 is reported as ≤ 100 nM. In the case of `O=C(NCc1cn(-c2ccc(-n3cccc(OCCO)c3=O)cc2)cn1)c1ccc(Cl)s1` [Compound 59, 5-chloro-N-((1-(4-(3-(2-hydroxyethoxy)-2-oxopyridin-1(2H)-yl)phenyl)-1H-imidazol-4-yl)methyl)thiophene-2-carboxamide], the IC50 is reported as ≤ 100 nM. `C[S+]([O-])c1nc(CNC(=O)c2ccc(Cl)s2)cn1-c1ccc(-n2cccc(F)c2=O)cc1` (stereo not drawn) [Compound 66, 5-chloro-N-((1-(4-(3-fluoro-2-oxopyridin-1(2H)-yl)phenyl)-2-(methylsulfinyl)-1H-imidazol-4-yl)methyl)thiophene-2-carboxamide] was tested, and the IC50 was ≤ 100 nM. With `COC(=O)c1cc(-n2ccccc2=O)ccc1-n1cnc(CNC(=O)c2ccc(Cl)s2)c1` [Compound 29, 5-Chloro-N-((1-(2-methoxycarbonyl-4-(2-oxopyridin-1(2H)-yl)phenyl)-1H-imidazol-4-yl)methyl)thiophene-2-carboxamide] the IC50 was ≥ 500 nM. With `C[S+]([O-])c1cc(-n2ccccc2=O)ccc1-n1cnc(CNC(=O)c2ccc(Cl)s2)c1` (stereo not drawn) [Compound 23, 5-chloro-N-((1-(2-(methylsulfinyl)-4-(2-oxopyridin-1(2H)-yl)phenyl)-1H-imidazol-4-yl)methyl)thiophene-2-carboxamide] the IC50 was ≤ 100 nM. With `CS(=O)(=O)c1nc(CNC(=O)c2ccc(Cl)s2)cn1-c1ccc(-n2cc(F)ccc2=O)cc1` [Compound 65, 5-chloro-N-((1-(4-(5-fluoro-2-oxopyridin-1(2H)-yl)phenyl)-2-(methylsulfonyl)-1H-imidazol-4-yl)methyl)thiophene-2-carboxamide] the IC50 was ≤ 100 nM. In the case of `CSc1nc(CNC(=O)c2ccc(Cl)s2)cn1-c1ccc(-n2ccccc2=O)cc1` [Compound 55, 5-chloro-N-((2-(methylthio)-1-(4-(2-oxopyridin-1(2H)-yl)phenyl)-1H-imidazol-4-yl)methyl)thiophene-2-carboxamide], the IC50 is reported as ≤ 100 nM. With `O=C(NCc1cn(-c2ccc(N3CCS(=O)(=O)CC3=O)cc2)cn1)c1ccc(Cl)s1` [Compound 16, 5-Chloro-N-((1-(4-(1,1-dioxo-3-oxothiomorpholino)phenyl)-1H-imidazol-4-yl)methyl)thiophene-2-carboxamide] the IC50 was ≥ 500 nM. For `O=C(NCc1cn(-c2ccc(-n3ccccc3=O)cc2NCCO)cn1)c1ccc(Cl)s1` [Compound 27, 5-Chloro-N-((1-(2-(2-hydroxyethylamino)-4-(2-oxopyridin-1(2H)-yl)phenyl)-1H-imidazol-4-yl)methyl)thiophene-2-carboxamide], the IC50 was ≤ 100 nM. `Cc1ccc(=O)n(-c2ccc(-n3cnc(CNC(=O)c4ccc(Cl)s4)c3)cc2)c1` [Compound 45, 5-chloro-N-((1-(4-(5-methyl-2-oxopyridin-1(2H)-yl)phenyl)-1H-imidazol-4-yl)methyl)thiophene-2-carboxamide] was tested, and the IC50 was ≤ 100 nM. `O=C(NCc1cn(-c2ccc(-n3ccc(=O)[nH]c3=O)cc2)cn1)c1ccc(Cl)s1` [Compound 47, 5-chloro-N-((1-(4-(2,4-dioxo-3,4-dihydropyrimidin-1(2H)-yl)phenyl)-1H-imidazol-4-yl)methyl)thiophene-2-carboxamide] was tested, and the IC50 was ≤ 100 nM. `O=C(NCc1cn(-c2ccc(N3CCSCC3=O)cc2)cn1)c1ccc(Cl)s1` [Compound 15, 5-Chloro-N-((1-(4-(3-oxothiomorpholino)phenyl)-1H-imidazol-4-yl)methyl)thiophene-2-carboxamide] was tested, and the IC50 was ≤ 100 nM. In the case of `C[S+]([O-])c1nc(CNC(=O)c2ccc(Cl)s2)cn1-c1ccc(-n2cc(F)ccc2=O)cc1` (stereo not drawn) [Compound 64, 5-chloro-N-((1-(4-(5-fluoro-2-oxopyridin-1(2H)-yl)phenyl)-2-(methylsulfinyl)-1H-imidazol-4-yl)methyl)thiophene-2-carboxamide], the IC50 is reported as ≤ 100 nM. With `Cc1nc(CNC(=O)c2ccc(Cl)s2)cn1-c1ccc(-n2ccccc2=O)cc1` [Compound 62, 5-Chloro-N-((2-methyl-1-(4-(2-oxopyridin-1(2H)-yl)phenyl)-1H-imidazol-4-yl)methyl)thiophene-2-carboxamide] the IC50 was ≤ 100 nM.
